Marks after values point to notes of the source that are not given here.
What was measured:
[1] = Superoxide radical scavenging assay (NBT reduction); type: biochemical; conditions: mean ± SD (n = 3)
Experimental: The superoxide radical (O2^−) scavenging capacity was spectrophotometrically evaluated, in accordance with Gomes et al.. Absorbance was read at 560 nm for 6 min at 37 °C in a Synergy HT Microplate Reader. The results were expressed as IC50, of the reduction in NBT to a purple-colored diformazan by the reaction with O2.

[2] = Hypochlorous acid scavenging assay (DHR oxidation); type: biochemical; conditions: mean ± SD (n = 3)
Experimental: The uptake capacity of hypochlorous acid (HOCl^−) was determined by monitoring the effect of OMWW extracts in the HOCl^− induced oxidation of dihydrorhodamine (DHR) to rhodamine, as reported by Gomes et al.. The fluorescence was read at 37 °C for 5 min, at wavelengths of 485 ± 20 nm and 528 ± 20 nm. The results were expressed as the inhibition, in IC50, of HOCl^− induced DHR oxidation.

[3] = test system: co-culture of Caco-2 and HT29-MTX cell lines; experiment: Intestinal permeability assay, Caco-2/HT29-MTX co-culture, LC-MS quantification; type: in vitro ADME, human; conditions: for calculated concentration, basolateral side / calculated concentration, apical side: OMWW B1 sample, mean ± SD (n = 3); for calculated concentration, apical side: apical (100% reference); for Mean Permeation Rate (±SD) at 240 min: polyphenol within OMWW B1 sample (500 µg/mL), apical to basolateral
Experimental: The instrumental setup consisted of an Agilent (Santa Clara, CA, USA) 1290 UHPLC system, which included a binary pump, a column oven maintained at 40 °C, and a temperature-controlled autosampler. This system was connected to a Sciex (Concord, ON, Canada) QTRAP 6500+ mass spectrometer operating as a triple quadrupole, equipped with an IonDrive™ Turbo V source performing electrospray ionization (ESI). […] The instrument control and data acquisition were performed using Sciex Analyst® version 1.7 software and MultiquantTM software version 3.0.3. Data analysis was carried out using Microsoft 365® Excel software (Albuquerque, NM, USA) and GraphPad (San Diego, CA, USA) Prism version 9.0.2. The mass spectrometry selected reaction monitoring (SRM) method was operated in negative ion mode. For each compound, declustering potential (DP), collision energy (CE), and collision exit potential (CxP) were optimized, and three transitions were considered for analysis. One transition was used for quantification (Q), while the other two were used as qualifiers (q). The transition list and additional operational parameters are already reported. A stock solution of each standard compound, including the internal standard, was prepared in MeOH at a concentration of 100 μg/mL and stored at −20 °C. Calibration curves were freshly prepared in pure LC-MS water. […] [34]. The experiments were performed 21 days after seeding the cells in 12 well plates. During this period, the transepithelial electrical resistance (TEER) was monitored to evaluate the cell monolayer integrity. On the last day, cell monolayers were pre-equilibrated with fresh HBSS (pH 7.4) at 37 °C for 30 min. […] At the same time, the TEER was evaluated, using an EVOM Epithelial Volthometer Instrument equipped with a chopstick electrode (World Precision Instruments, Sarasota, FL, USA). After each sampling time, the basolateral side was replaced with the same HBSS volume. Samples were conserved at −20 °C for subsequent LC/ESI-MS analysis, according to Section 2.5.

[4] = DPPH free radical scavenging assay; type: biochemical; conditions: mean ± standard error (n = 3); 45 min, rt
Experimental: The antiradical activity of OMWW and EVOO samples was assessed by the DPPH free radical scavenging, as reported by Cuffaro et al.. Briefly, 100 μL of DPPH MeOH solution (40.0 μg/mL) was added to 100 μL of the sample solution in MeOH (1 mg/mL to 0.01 mg/mL), and the resulting solution was incubated for 45 min at rt and in the dark. The absorbance was read at 517 nm in a Molecular Devices […] (200-1000 nm) UV/Vis spectrophotometer. Trolox® was the positive control and was treated under the same conditions as the samples. The percent of antioxidant activity (%AA) was calculated according to the following equation:%AA = ([…] = DPPH solution absorbance Abssample = DPPH solution containing the test compound absorbance […] All experiments were performed in triplicate.

[5] = ABTS radical cation scavenging assay; type: biochemical; conditions: mean ± standard error (n = 3); 5 min, rt
Experimental: The ABTS free radical scavenging activity of samples was evaluated by radical cation colorimetric assay in accordance with Cuffaro et al.. Briefly, the ABTS solution (7 mM of aqueous solution of ABTS with 2.45 mM potassium persulfate in a 1:1 ratio) was incubated for 12 h in the dark at rt. Then, the solution was diluted with EtOH to obtain an absorbance of 0.7 at 750 nm. A total of 10 μL of sample solution (1 mg/mL to 0.01 mg/mL) in EtOH was mixed with 180 μL of ABTS solution and the solution was incubated for 5 min at rt. The final absorbance was read at 734 nm in a Molecular Devices […] (200-1000 nm) UV/Vis spectrophotometer. The % scavenging ability was calculated as follows:% scavenging ability = ([…] = ABTS solution absorbance Abssample = ABTS solution containing the test compound absorbance. […] Trolox® was employed as positive control and was treated under the same conditions as the samples. All experiments were performed in triplicate.

[6] = test system: co-culture of Caco-2 and HT29-MTX cell lines; parameters: method as in PMID 37446813; conditions: tyrosol alone, same model; cited from earlier work

Row | SMILES | O2^− scavenging IC50 [1] | HOCl^− scavenging IC50 [2] | calculated concentration, basolateral side ([3]; 30 min) | calculated concentration, basolateral side ([3]; 60 min) | calculated concentration, basolateral side ([3]; 120 min) | calculated concentration, basolateral side ([3]; 180 min) | calculated concentration, basolateral side ([3]; 240 min) | calculated concentration, apical side [3] | Mean Permeation Rate (±SD) at 240 min ([3]; 240 min) [%] | Mean Permeation Rate (±SD) at 240 min ([3]; 240 min, listed as caffeic acid) [%] | DPPH IC50 [4] | ABTS IC50 [5] | Mean Permeation Rate (±SD) at 240 min ([3]; 240 min, listed as hydroxytyrosol) [%] | permeation (release) at 240 min [6] [%]
1 | O.Oc1cc(O)c2c(c1)O[C@H](c1ccc(O)c(O)c1)[C@@H](O)C2 [Catechin] | 18.01 ± 0.34 ^c,d μg/mL | 0.20 ± 0.01 ^b μg/mL | – | – | – | – | – | – | – | – | – | – | – | –
2 | Cc1c(C)c2c(c(C)c1O)CCC(C)(C(=O)O)O2 (stereo not drawn) [Trolox] | – | – | – | – | – | – | – | – | – | – | 0.007 ± 0.001 ^h mg/mL | 0.003 ± 0.0004 ^i mg/mL | – | –
3 | OCCc1ccc(O)cc1 [Tyrosol] | – | – | 155,50 ± 6,36 ng/mL | 224,50 ± 21,92 ng/mL | 259,50 ± 47,38 ng/mL | 256,50 ± 13,44 ng/mL | 314,00 ± 33,94 ng/mL | 587,50 ± 234,05 ng/mL | 59 ± 29 | – | – | – | – | 78

The next lines start with results.

Row | O2^− scavenging IC50 [1] | HOCl^− scavenging IC50 [2] | calculated concentration, basolateral side ([3]; 30 min) | calculated concentration, basolateral side ([3]; 60 min) | calculated concentration, basolateral side ([3]; 120 min) | calculated concentration, basolateral side ([3]; 180 min) | calculated concentration, basolateral side ([3]; 240 min) | calculated concentration, apical side [3] | Mean Permeation Rate (±SD) at 240 min ([3]; 240 min) [%] | Mean Permeation Rate (±SD) at 240 min ([3]; 240 min, listed as caffeic acid) [%] | DPPH IC50 [4] | ABTS IC50 [5] | Mean Permeation Rate (±SD) at 240 min ([3]; 240 min, listed as hydroxytyrosol) [%] | SMILES | permeation (release) at 240 min [6] [%]
4 | – | – | 0,31 ± 0,10 ng/mL | 0,40 ± 0,25 ng/mL | 1,29 ± 0,31 ng/mL | 2,00 ± 0,01 ng/mL | 1,89 ± 0,42 ng/mL | 7,31 ± 0,74 ng/mL | 26 ± 3 | 26 | – | – | – | O=C(O)/C=C/c1ccc(O)c(O)c1 [Caffeic acid] | –
5 | – | – | 7,42 ± 5,35 ng/mL | 9,12 ± 5,78 ng/mL | 15,75 ± 5,02 ng/mL | 19,40 ± 2,55 ng/mL | 15,20 ± 1,98 ng/mL | 45,30 ± 0,85 ng/mL | 34 ± 5 | – | – | – | 34 | OCCc1ccc(O)c(O)c1 [Hydroxytyrosol] | –
6 | 6.34 ± 0.21 ^d μg/mL | 2.60 ± 0.05 ^b μg/mL | – | – | – | – | – | – | – | – | – | – | – | O=C(O)c1cc(O)c(O)c(O)c1 [Gallic acid] | –

— publication PMC11507932, “Comparative Analysis on Polyphenolic Composition of Different Olive Mill Wastewater and Related Extra Virgin Olive Oil Extracts and Evaluation of Nutraceutical Properties by Cell-Based Studies” (Foods, 2024)
